Experiments:
[1] = tested on: radiation-induced lung fibrosis; assay: Mouse radiation-induced lung fibrosis model: lung density by HRCT; assay type: in vivo; details: 14.5 Gy irradiated mice, treated 8 weeks from week 16, measured at 24 weeks; FIG. 2
Experimental: (§1) The objective of this study was to compare the activity of pamrevlumab monotherapy to either pirfenidone or nintedanib alone, and to evaluate the potential for enhanced activity of the combined agents. […] In this study, mice received thoracic irradiation (RT), followed by the therapeutic administration of the agents at 16 weeks post-irradiation when lung remodeling was evident by HRCT. After 8 weeks of drug treatment, lung density and volume were assessed by HRCT, lung function was assessed by blood gas analysis, and mice were sacrificed for histologic and gene expression analysis. C57B1/6 mice were irradiated with 14.5 Gy photons; full thorax, single dose. Treatment with therapeutic agent(s) (pamrevlumab, pirfenidone, and/or nintedanib) was initiated 16 weeks post-irradiation and continued for 8 weeks. Pamrevlumab (FG) was given IP, BIW, at 40 mg/kg; pirfenidone (PF) was given PO in chow, QD, at 300 mg/kg; nintedanib (ND) was given PO in chow, QD, at 100 mg/kg. Treatment with each agent alone, with combinations of two, and with a triple combination were carried out. Controls included non-irradiated mice, mice that were irradiated and not treated, and mice that were irradiated and given human IgG. Endpoint measurements were taken at 24 weeks for HRCT (lung structure), blood gas analysis (lung function), histology and gene expression analysis. […]

[2] = tested on: radiation-induced lung fibrosis; assay: Mouse radiation-induced lung fibrosis model: lung volume by HRCT; assay type: in vivo; details: 14.5 Gy irradiated mice, treated 8 weeks from week 16, measured at 24 weeks; FIG. 4
Experimental: as §1

[3] = tested on: radiation-induced lung fibrosis; assay: Mouse radiation-induced lung fibrosis model: lung function by blood gas analysis; assay type: in vivo; details: blood gas analysis at 24 weeks, compared to RT with no treatment; data not shown
Experimental: The objective of this study was to compare the activity of pamrevlumab monotherapy to either pirfenidone or nintedanib alone, and to evaluate the potential for enhanced activity of the combined agents. […] In this study, mice received thoracic irradiation (RT), followed by the therapeutic administration of the agents at 16 weeks post-irradiation when lung remodeling was evident by HRCT. After 8 weeks of drug treatment, lung density and volume were assessed by HRCT, lung function was assessed by blood gas analysis, and mice were sacrificed for histologic and gene expression analysis. C57B1/6 mice were irradiated with 14.5 Gy photons; full thorax, single dose. Treatment with therapeutic agent(s) (pamrevlumab, pirfenidone, and/or nintedanib) was initiated 16 weeks post-irradiation and continued for 8 weeks. Pamrevlumab (FG) was given IP, BIW, at 40 mg/kg; pirfenidone (PF) was given PO in chow, QD, at 300 mg/kg; nintedanib (ND) was given PO in chow, QD, at 100 mg/kg. Treatment with each agent alone, with combinations of two, and with a triple combination were carried out. Controls included non-irradiated mice, mice that were irradiated and not treated, and mice that were irradiated and given human IgG. […] The effect of the treatments on lung function was assessed by blood gas analysis (data not shown).

IPF [4] = assay: Phase two study in IPF patients: St. George's Respiratory Questionnaire (SGRQ); assay type: in vivo, human; details: 48 weeks treatment, compared with placebo, FIGS. 5A-5D
Experimental: A double-blind, placebo-controlled Phase two study was conducted in which 103 patients, randomized (1:1) to receive pamrevlumab or placebo, were treated for 48 weeks. Patients' self-administered the Saint George's Respiratory Questionnaire (SGRQ) to assess changes in health-related quality of life parameters over the course of the study. This questionnaire was developed for patients with chronic airflow limitation and the results correlate well with established measures of symptom level, disease activity and disability. Patients completed the SGRQ on Day 1 (baseline) and every 12 weeks thereafter during the 48-week treatment period. The SGRQ comprises three domains (symptoms, activity, and impact) with the score for each domain ranging from 0 to 100, with higher scores indicating worse health-related quality of life (Jones P W, et al. Respir Med 1991; 85:Suppl B:25-31; Barr J T et al. Clin Ther 2000; 22:1121-45).

IPF [5] = assay: Phase two study in IPF patients: UCSD Shortness of Breath Questionnaire (UCSD-SOBQ); assay type: in vivo, human; details: for mean UCSD-SOBQ score: IPF patients, n=22, FIG. 6 change from baseline
From the text: A sub-set of patients in the Phase two clinical trial described above in Example 2 (pamrevlumab n=22, placebo n=20), self-administered the University of California, San Diego—Shortness of Breath Questionnaire (UCSD-SOBQ) at the start of therapy (baseline) and then every 12 weeks while enrolled in the 48 week study. The UCSD-SOBQ has been validated as an acceptable measure to assess change in dyspnea over time in IPF (Swigris et al., Respir Med. 2012 October; 106(10): 1447-1455).
The questionnaire has 24 sections that assess dyspnea associated with activities of daily living (ADLs) in different lung disorders, including IPF. Twenty-one sections relate to the severity of dyspnea experienced during different daily activities, while three sections assess the limitations due to shortness of breath, fear of harm from overexertion and fear of shortness of breath. Each question has a 6-point scale (0=“not at all” to 5=“maximal or unable to do because of breathlessness”. The total score ranges from 0 to 120, with higher scores indicating greater dyspnea.
An ANCOVA model with treatment as fixed effect and baseline UCSD-SOBQ score as covariate was applied to observed and imputed data at each visit. Missing results at post-baseline visits were mputed using the predicted values from a random coefficient model. The analysis included all subjects who had baseline and at least one post-baseline UCSD-SOBQ evaluation.

pamrevlumab was tested, and the “radiation-induced increase in lung density (Hounsfield Units)” value [1] was “significantly inhibited the increase in radiation-induced lung density from baseline”, the “radiation-induced lung volume decrease” value [2] was “significantly inhibited radiation-induced lung volume decrease from baseline” and the O2 saturation [3] was “normalized O2 saturation”. For the same substance, the “SGRQ all domains (symptoms, activity, impact) and total score, change from baseline” value (IPF [4]) was “improvement (lower values)”, the “mean UCSD-SOBQ score” value (IPF [5]; Week 12) was 1.98 and the “mean UCSD-SOBQ score” value (IPF [5]; Week 36) was 3.76. The “mean UCSD-SOBQ score” value (IPF [5]; Week 48) was 2.26 and the “difference in mean UCSD-SOBQ score between the two arms” value (IPF [5]; pamrevlumab vs placebo, Week 48, p-value=0.0460) was −13.32 points.
